Article PMC4663078 (Bioorganic & medicinal chemistry letters, 2015)
Where two headings read alike, the source gives them in different places.

Columns and labels:
[1] = tested on: MRSA (ATCC 43300); test: microdilution susceptibility test; type: cell-based, Staphylococcus aureus; settings: N=3
[2] = tested on: CIMRSA 1; test: microdilution susceptibility test; type: cell-based, Staphylococcus aureus; settings: N=3
[3] = tested on: CIMRSA 2; test: microdilution susceptibility test; type: cell-based, Staphylococcus aureus; settings: N=3
[4] = tested on: CIMRSA 3; test: microdilution susceptibility test; type: cell-based, Staphylococcus aureus; settings: N=3
[5] = tested on: CIMRSA 4; test: microdilution susceptibility test; type: cell-based, Staphylococcus aureus; settings: N=3
[6] = tested on: CIMRSA 5; test: microdilution susceptibility test; type: cell-based, Staphylococcus aureus; settings: N=3
[7] = tested on: CIMRSA 6; test: microdilution susceptibility test; type: cell-based, Staphylococcus aureus; settings: N=3
[8] = tested on: CIMRSA 7; test: microdilution susceptibility test; type: cell-based, Staphylococcus aureus; settings: N=3
[9] = tested on: E. coli (ATCC 25922); test: microdilution susceptibility test; type: cell-based, Escherichia coli; settings: N=3
[10] = tested on: Vero cells; test: CTG Luminescent Cell Viability Assay; type: cell-based, monkey; settings: N=3
[11] = tested on: PBMC isolated from healthy volunteers; test: cytotoxicity in peripheral blood mononuclear cells; type: cell-based, human; settings: N=3
[12] = molecular target: S. aureus DNA gyrase (Staphylococcus aureus, UniProt P0A0K8+P20831); test: DNA gyrase supercoiling inhibition; type: biochemical
[13] = tested on: MRSA (ATCC 43300); settings: cited from earlier work
[14] = tested on: Staphylococcus saprophyticus; settings: cited from earlier work
[15] = tested on: Bacillus cereus; settings: cited from earlier work
[16] = tested on: Klebsiella pneumoniae; settings: cited from earlier work
[17] = tested on: Pseudomonas aeruginosa; settings: cited from earlier work
[18] = tested on: clinical isolates of MRSA; settings: cited from earlier work
[19] = tested on: eight MRSA strains; test: antibacterial activity against eight MRSA strains; type: cell-based, Staphylococcus aureus; settings: 6 compared with 2
[20] = CTG Luminescent Cell Viability Assay; type: cell-based, monkey; settings: monkey, Vero cells

S. aureus DNA gyrase, sequence (P20831 whole entry): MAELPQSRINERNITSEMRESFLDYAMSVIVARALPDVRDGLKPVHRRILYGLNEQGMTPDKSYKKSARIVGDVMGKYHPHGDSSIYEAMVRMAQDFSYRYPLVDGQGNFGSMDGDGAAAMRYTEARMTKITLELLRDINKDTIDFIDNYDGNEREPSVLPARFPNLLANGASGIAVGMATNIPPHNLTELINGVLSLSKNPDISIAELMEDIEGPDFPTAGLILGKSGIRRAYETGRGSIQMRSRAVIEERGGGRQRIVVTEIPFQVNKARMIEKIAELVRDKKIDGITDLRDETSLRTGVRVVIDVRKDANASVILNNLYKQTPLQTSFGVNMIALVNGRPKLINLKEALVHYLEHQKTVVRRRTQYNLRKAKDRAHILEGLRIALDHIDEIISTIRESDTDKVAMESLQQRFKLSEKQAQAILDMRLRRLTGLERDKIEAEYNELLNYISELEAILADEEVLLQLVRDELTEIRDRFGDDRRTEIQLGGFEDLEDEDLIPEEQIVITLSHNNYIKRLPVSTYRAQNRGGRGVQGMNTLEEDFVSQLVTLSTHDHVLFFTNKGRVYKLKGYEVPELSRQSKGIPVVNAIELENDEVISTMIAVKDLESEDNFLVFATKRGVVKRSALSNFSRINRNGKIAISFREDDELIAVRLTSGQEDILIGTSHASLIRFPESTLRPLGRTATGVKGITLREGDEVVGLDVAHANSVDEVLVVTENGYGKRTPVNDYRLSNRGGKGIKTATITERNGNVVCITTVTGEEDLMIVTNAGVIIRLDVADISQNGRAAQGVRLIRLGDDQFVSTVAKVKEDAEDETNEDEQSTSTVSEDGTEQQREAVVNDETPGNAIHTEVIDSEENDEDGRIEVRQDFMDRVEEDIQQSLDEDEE
S. aureus DNA gyrase, sequence (P0A0K8 whole entry): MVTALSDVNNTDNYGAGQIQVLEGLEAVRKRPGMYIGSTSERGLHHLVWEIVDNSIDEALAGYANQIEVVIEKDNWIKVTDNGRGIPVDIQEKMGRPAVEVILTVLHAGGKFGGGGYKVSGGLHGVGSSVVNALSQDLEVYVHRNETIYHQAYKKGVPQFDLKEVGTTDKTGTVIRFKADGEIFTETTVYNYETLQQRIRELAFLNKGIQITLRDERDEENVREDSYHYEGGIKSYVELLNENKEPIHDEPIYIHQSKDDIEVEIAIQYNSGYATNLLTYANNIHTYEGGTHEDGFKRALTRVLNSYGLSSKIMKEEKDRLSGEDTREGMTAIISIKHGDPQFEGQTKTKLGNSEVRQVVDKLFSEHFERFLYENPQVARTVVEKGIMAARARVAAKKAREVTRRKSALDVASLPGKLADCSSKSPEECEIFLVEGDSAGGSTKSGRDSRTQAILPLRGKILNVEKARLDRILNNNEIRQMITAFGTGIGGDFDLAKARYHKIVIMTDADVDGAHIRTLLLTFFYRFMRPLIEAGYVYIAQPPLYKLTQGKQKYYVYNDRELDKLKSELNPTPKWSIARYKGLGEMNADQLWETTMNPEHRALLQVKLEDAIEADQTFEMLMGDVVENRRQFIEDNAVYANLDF

2-hexadecynoic acid [compound 4]
IC50 ± SEM [1]: 5.1 ± 0.1 µg/mL
MIC [1]: 7.8 µg/mL
IC50 ± SEM [2]: 4.2 ± 0.1 µg/mL
MIC [2]: 7.8 µg/mL
IC50 ± SEM [3]: 5.0 ± 0.5 µg/mL
MIC [3]: 7.8 µg/mL
IC50 ± SEM [4]: 6.3 ± 0.2 µg/mL
MIC [4]: 15.6 µg/mL
IC50 ± SEM [5]: 6.5 ± 0.1 µg/mL
MIC [5]: 15.6 µg/mL
IC50 ± SEM [6]: 5.1 ± 0.2 µg/mL
MIC [6]: 7.8 µg/mL
IC50 ± SEM [7]: 5.7 ± 0.8 µg/mL
MIC [7]: 7.8 µg/mL
IC50 ± SEM [8]: 4.7 ± 0.3 µg/mL
MIC [8]: 7.8 µg/mL
MIC [9]: >1,000 μg/mL
Vero cells cytotoxicity IC50±SEM [10]: 1.6 ± 0.4 µg/mL
PBMC cytotoxicity IC50±SEM [11]: 68.9 ± 0.7 µg/mL
fold more active against DNA gyrase than 6 ([12]; 4 compared with 6): 3.7 fold
MIC [13]: 15.6 µg/mL
MIC [14]: 15.6 µg/mL
MIC [15]: 31.3 µg/mL
MIC [16]: 7.8 µg/mL
MIC [17]: 125 µg/mL
MIC [18]: 3.9 µg/mL

CCCCCCCCCCCCCCCC(=O)Oc1ccc(/C=C/C(=O)/C=C/c2ccc(OC(=O)CCCCCCCCCCCCCCC)c(OC)c2)cc1OC [C5-Curc-PA, C5-Curcumin-Palmitic Acid]
inhibition of S. aureus DNA gyrase (in words) ([12]; ethidium bromide stained gels, Fig. 2): not inhibitory

CCCCCCCCCCCCCC#CC(=O)Oc1ccc(/C=C/C(=O)/C=C/c2ccc(OC(=O)C#CCCCCCCCCCCCCC)c(OC)c2)cc1OC [compound 6, C5-Curcumin-2-Hexadecynoic Acid]
fold increase of antibacterial activity against MRSA strains relative to 2 [19]: 4-8 fold
IC50 [20]: > 100 µg/mL
